Experiment [1] deals with Aspergillus flavus. Kind of experiment: MIC, YAG medium, Aspergillus flavus. The experiment is classed as cell-based. To be noted: Aspergillus flavus; YAG medium; read-out: MIC A Flavus 01. A digest of the protocol:
(§1)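 Doubling dilutions (50-0.05 mg/L) were tested against Candida in RPMI with 2% glucose and 0.135M MOPS, pH7.0, at 1-2×10^3 cfu/ml for 24-48 hrs, 35° C; MIC is >80% inhibition at OD485. Aspergillus in YAG medium at 1-2×10^4 cfu/ml for 24 hrs was scored at >70% inhibition; low MICs were retested over 0.5-0.0005 mg/L.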

In experiment [2] the test system is Aspergillus fumigatus AF293. Kind of experiment: MIC, YAG medium, Aspergillus fumigatus AF293. To be noted: Aspergillus fumigatus, AF293; YAG medium; read-out: MIC A Fum. 293. The experiment is classed as cell-based. A digest of the protocol: as §1
Experiment [3] concerns Aspergillus niger. As to the kind of experiment: MIC, YAG medium, Aspergillus niger. Conditions: Aspergillus niger; YAG medium; read-out: MIC A Niger 1. It counts as cell-based. An outline of the steps: as §1
Experiment [4] relates to Aspergillus terreus. As to the kind of experiment: MIC, YAG medium, Aspergillus terreus. It counts as cell-based. Conditions: Aspergillus terreus; YAG medium; read-out: MIC A Terreus 4. A digest of the protocol:
as §1

Experiment [5] concerns Aspergillus fumigatus AF210. Kind of experiment: MIC, YAG medium, Aspergillus fumigatus AF210. The experiment is classed as cell-based. To be noted: Aspergillus fumigatus, AF210; YAG medium; read-out: MIC A Fum. 210. An outline of the steps:
as §1

Experiment [6] has as its system A Terreus 49. As to the kind of experiment: MIC, YAG medium, A Terreus 49. It counts as cell-based, Aspergillus terreus. Conditions: Aspergillus terreus; YAG medium; read-out: MIC A Terreus 49. An outline of the steps: as §1
Experiment [7] relates to Candida albicans. As to the kind of experiment: MIC, RPMI medium, Candida albicans. Conditions: read-out: MIC C. albicans. The experiment is classed as cell-based. How it is done:
(§2) Measurement of Minimum Inhibitory Concentrations (MICs)
(§3) Between 1 and 5 mgs of compound were accurately weighed out into a sterile Eppendorf tube. The compound was dissolved in DMSO to give a solution containing 5 mg/ml. Tubes were stored at −20° C. until required.
(§4) On the day of testing thawed solutions were vortex mixed to ensure homogeneity. 30 μl of solution was removed and added to 570 μl of sterile water in a separate sterile Eppendorf. The thoroughly mixed solution was used to prepare a series of doubling dilutions in water, in a deep well plate. Eleven replicate plates were prepared using a Minitrak by aspirating 20 μl from each well into eleven clear polystyrene 96 well plates.
(§5) Spores of Aspergillus spp (Aspergillus fumigatus, Aspergillus terreus, Aspergillus niger and Aspergillus flavus) were harvested from cultures grown on Sabarauds agar for 5 days, and resuspended in PBS/Tween 80 to approx 1×10^7 cfu/ml Other filamentous fungi (Fusarium solani, Scedosporium spp., Trichophyton spp., Absidia corymbifera), were grown on Sabarauds agar for 2-10 days and spores/hyphae resuspended in PBS/Tween to give approx 1×10^7 cfU/ml. Candida species (Candida albicans, Candida glabrata, Candida krusei, Candida parapsilosis and Candida tropicalis) were grown on Sabarauds agar, cells were harvested from the agar using a sterile loop and resuspended in PBS/Tween 80 to approx 1×10^6 cfu/ml. Each organism suspension was diluted in RPMI medium, containing 2% glucose and 0.135M MOPS buffer (pH7.0) to 2×10^4 cfu/ml for Aspergillus spp and other filamentous fungi and 2×10^3 cfu/ml for yeast. 80 μl of an organism suspension was added to each well of the plate containing drug dilutions.
(§6) This produced MIC plates with a drug range 50-0.05 mg/L and organism inocula of 1-2×10^4 cfu/ml for Aspergillus spp and other filamentous fungi and 1-2×10^3 cfu/ml for yeasts. All plates were incubated for 24-48 hrs at 35° C. Growth was assessed by monitoring the optical density at 485 nm for each well. The MIC of a compound is the lowest drug concentration that inhibits growth of an organism by >80% compared with a drug free control. MICs are recorded as mg/L. Other growth media can be used for susceptibility testing, and the activity of the described compounds can also be assessed in a medium comprising, 1% glucose, 1% ammonium chloride and 0.5% yeast extract (YAG medium). To perform MIC tests in this medium, dilutions of compounds are prepared in microtitre plates as described above. Fungal strains to be tested are grown and harvested in an identical manner to that described above, each organism suspension is then diluted in YAG medium to 2×10^4 cfu/ml for Aspergillus spp and other filamentous fungi and 2×10^3 cfu/ml for yeast. 80 μl of an organism suspension was added to each well of the plate containing drug dilutions. This produced MIC plates with a drug range 50-0.05 mg/L and organism inocula of 1-2×10^4 cfu/ml for Aspergillus spp and other filamentous fungi and 1-2×10^3 cfu/ml for yeasts. All plates were incubated for 24 hrs at 35° C. Growth was assessed by monitoring the optical density at 485 nm for each well. The MIC of a compound is the lowest drug concentration that inhibits growth of an organism by >70% compared with a drug free control. MICs are recorded as mg/L. In cases where the MIC of an organism is […]0.05 mg/L the MIC is repeated using a concentration range of 0.5-0.0005 mg/L. MIC tests in YAG medium have more clear-cut endpoints and have slightly lower MICS than those performed in RPMI medium.
(§7) The following organisms were tested: Aspergillus fumigatus AF293 and Aspergillus fumigatus AF210, Aspergillus niger, Aspergillus terreus, Aspergillus favus, Candida albicans, Candida krusei, Candida tropicalis, Candida glabrata, Candida parapsilosis, Trichophyton rubrum, Trichophyton mentagrophytes, Scedosporium prolificans, Scedosporium apiospermum, Absidia corymbifera, Fusarium solani.

The subject of experiment [8] is Candida glabrata. Kind of experiment: MIC, RPMI medium, Candida glabrata. It counts as cell-based. To be noted: Nakaseomyces glabratus, read-out: MIC C. glabrata. As to the method:
as §2, §3, §4, §5, §6, §7

The test system of experiment [9] is Candida krusei. As to the kind of experiment: MIC, RPMI medium, Candida krusei. Conditions: Pichia kudriavzevii, read-out: MIC C. krusei. It counts as cell-based. How it is done:
as §2, §3, §4, §5, §6, §7

Experiment [10] relates to Candida parapsilosis. As to the kind of experiment: MIC, RPMI medium, Candida parapsilosis. It counts as cell-based. Conditions: Lodderomyces parapsilosis, read-out: MIC C. parapsilosis. As to the method:
as §2, §3, §4, §5, §6, §7

Experiment [11] has as its system Candida tropicalis. Kind of experiment: MIC, RPMI medium, Candida tropicalis. The experiment is classed as cell-based. To be noted: read-out: MIC C. tropicalis. How it is done: as §2, §3, §4, §5, §6, §7

In patent US8486962B2, “Antifungal agents” (F2G Ltd., priority 2005, dated 2013) one finds MIC data, which are given here for two compounds.

For orientation: MIC means the least concentration at which growth counts as inhibited.

Values after ≈ are worked out from the molar mass of the structure shown.

Consider `O=C1CCN(c2ccc(NC(=O)C(=O)c3c(-c4ccccc4)cc4ccccn34)cc2)CC1` [Example 272, 2-Oxo-N-[4-(4-oxo-piperidin-1-yl)-phenyl]-2-(2-phenyl-indolizin-3-yl)-acetamide], for which the MIC in experiment [1] turned out to be 0.062 µg/mL (≈ 0.142 µM); in experiment [2] it was 0.25 µg/mL (≈ 0.571 µM); in experiment [3], 0.5 µg/mL (≈ 1.14 µM); in experiment [4], 0.12 µg/mL (≈ 0.274 µM); in experiment [5], 0.5 µg/mL (≈ 1.14 µM); in experiment [6] it was 0.12 µg/mL (≈ 0.274 µM). Besides, the MIC in experiment [7] amounted to 1.6 µg/mL (≈ 3.66 µM); in experiment [8] it was 50 µg/mL (≈ 114 µM); in experiment [9], 50 µg/mL (≈ 114 µM); in [10] it was 25 µg/mL (≈ 57.1 µM); in experiment [11], 6.25 µg/mL (≈ 14.3 µM).

Turning to `CN(C)c1ccc(NC(=O)C(=O)c2c(-c3ccccc3)cc3ccccn23)cc1C(=O)O` [Example 274, 2-Dimethylamino-5-[2-oxo-2-(2-phenyl-indolizin-3-yl)-acetylamino]-benzoic acid], the MIC in experiment [1] was 50 µg/mL (≈ 117 µM); in experiment [2], 50 µg/mL (≈ 117 µM); in experiment [3], more than 50 µg/mL; in [4], more than 50 µg/mL; in [5] it was more than 50 µg/mL; in [6], 12.5 µg/mL (≈ 29.2 µM). Also, the MIC in experiment [7] was 3.1 µg/mL (≈ 7.25 µM); in experiment [8] it was more than 50 µg/mL; in experiment [9], more than 50 µg/mL; in experiment [10], 50 µg/mL (≈ 117 µM); in [11] it was 12.5 µg/mL (≈ 29.2 µM).
